{
  "source": "ChEMBL document CHEMBL4028852",
  "about": "“Design of a Chemical Probe for the Bromodomain and Plant Homeodomain Finger-Containing (BRPF) Family of Proteins” (J Med Chem, 2017)",
  "key": {"[1]": {"biological_target": "Bromodomain-containing protein 4 (Homo sapiens, UniProt O60885)", "experiment": "Inhibition of human BRD4 bromodomain 1 (unknown origin) by Alexa Fluor 647-JQ1 probe-based fluoresence polarization competition assay"}, "[2]": {"biological_target": "T1, Bromodomain-containing protein 1 (Homo sapiens, UniProt O95696)", "T1 sequence (O95696 whole entry)": "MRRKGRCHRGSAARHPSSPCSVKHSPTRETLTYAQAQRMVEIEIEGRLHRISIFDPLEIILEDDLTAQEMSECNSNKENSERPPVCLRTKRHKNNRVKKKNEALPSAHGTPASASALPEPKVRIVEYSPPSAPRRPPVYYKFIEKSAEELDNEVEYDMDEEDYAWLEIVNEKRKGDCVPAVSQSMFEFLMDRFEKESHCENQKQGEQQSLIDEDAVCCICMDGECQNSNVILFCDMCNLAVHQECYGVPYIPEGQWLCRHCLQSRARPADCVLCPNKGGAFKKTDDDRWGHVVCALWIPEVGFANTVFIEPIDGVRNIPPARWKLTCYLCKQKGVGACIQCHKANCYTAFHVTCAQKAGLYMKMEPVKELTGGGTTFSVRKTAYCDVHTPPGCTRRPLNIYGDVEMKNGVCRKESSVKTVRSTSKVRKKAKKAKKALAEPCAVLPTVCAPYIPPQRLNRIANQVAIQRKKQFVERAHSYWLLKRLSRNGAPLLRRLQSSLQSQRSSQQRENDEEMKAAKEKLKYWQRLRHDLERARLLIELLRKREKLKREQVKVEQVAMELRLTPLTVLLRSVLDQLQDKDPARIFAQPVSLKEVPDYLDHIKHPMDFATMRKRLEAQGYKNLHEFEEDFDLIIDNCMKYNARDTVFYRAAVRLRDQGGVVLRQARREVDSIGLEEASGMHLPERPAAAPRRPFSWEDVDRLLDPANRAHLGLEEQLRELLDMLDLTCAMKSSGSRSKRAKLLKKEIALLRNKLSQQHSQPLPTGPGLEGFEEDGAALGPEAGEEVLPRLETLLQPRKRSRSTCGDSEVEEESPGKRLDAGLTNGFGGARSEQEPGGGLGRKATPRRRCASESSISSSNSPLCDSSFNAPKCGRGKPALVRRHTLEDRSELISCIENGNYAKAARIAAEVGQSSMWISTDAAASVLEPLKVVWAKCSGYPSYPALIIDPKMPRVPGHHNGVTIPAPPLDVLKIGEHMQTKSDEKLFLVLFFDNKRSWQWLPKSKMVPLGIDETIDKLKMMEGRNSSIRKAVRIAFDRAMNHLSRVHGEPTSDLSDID", "experiment": "Inhibition of His-tagged BRPF2 (unknown origin) after 30 mins by alphaScreen assay"}, "[3]": {"biological_target": "T2, Bromodomain-containing protein 9 (Homo sapiens, UniProt Q9H8M2)", "T2 sequence (Q9H8M2 whole entry)": "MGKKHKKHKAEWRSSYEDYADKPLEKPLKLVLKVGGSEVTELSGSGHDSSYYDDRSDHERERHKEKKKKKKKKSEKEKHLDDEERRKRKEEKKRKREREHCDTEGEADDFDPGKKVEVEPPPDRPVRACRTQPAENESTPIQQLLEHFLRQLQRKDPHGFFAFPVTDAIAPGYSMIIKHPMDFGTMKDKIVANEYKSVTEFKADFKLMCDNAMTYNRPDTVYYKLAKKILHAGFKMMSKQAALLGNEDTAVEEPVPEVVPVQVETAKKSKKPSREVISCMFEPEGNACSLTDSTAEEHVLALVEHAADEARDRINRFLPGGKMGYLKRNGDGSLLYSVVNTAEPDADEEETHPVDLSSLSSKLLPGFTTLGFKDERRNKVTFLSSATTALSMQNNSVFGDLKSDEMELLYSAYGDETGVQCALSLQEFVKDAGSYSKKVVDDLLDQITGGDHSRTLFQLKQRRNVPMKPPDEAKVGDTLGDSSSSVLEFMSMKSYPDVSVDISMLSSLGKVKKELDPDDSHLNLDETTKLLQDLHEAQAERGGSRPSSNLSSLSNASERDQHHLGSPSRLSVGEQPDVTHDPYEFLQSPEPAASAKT", "experiment": "Inhibition of His-tagged BRD9 (unknown origin) after 30 mins by alphaScreen assay"}, "[4]": {"experiment": "Apparent permeability across apical to basolateral side in human Caco2 cells at 10 uM after 2 hrs by LC-MS/MS analysis", "type": "ADME, cell-based", "settings": "Caco-2; call rule not given here"}, "[5]": {"experiment": "Fraction of drug absorbed in CD1 mouse at 3 mg/kg, po by UPLC-MS/MS analysis", "type": "ADME, organism-based", "settings": "in vivo, read-out: Fabs"}, "[6]": {"experiment": "Inhibition of CYP450 (unknown origin)", "type": "ADME", "settings": "human"}, "[7]": {"biological_target": "T2, Bromodomain-containing protein 9", "experiment": "Binding affinity to BRD9 (unknown origin) by isothermal titration calorimetry"}, "hERG": {"biological_target": "hERG (Homo sapiens, UniProt Q12809)", "sequence (Q12809 whole entry)": "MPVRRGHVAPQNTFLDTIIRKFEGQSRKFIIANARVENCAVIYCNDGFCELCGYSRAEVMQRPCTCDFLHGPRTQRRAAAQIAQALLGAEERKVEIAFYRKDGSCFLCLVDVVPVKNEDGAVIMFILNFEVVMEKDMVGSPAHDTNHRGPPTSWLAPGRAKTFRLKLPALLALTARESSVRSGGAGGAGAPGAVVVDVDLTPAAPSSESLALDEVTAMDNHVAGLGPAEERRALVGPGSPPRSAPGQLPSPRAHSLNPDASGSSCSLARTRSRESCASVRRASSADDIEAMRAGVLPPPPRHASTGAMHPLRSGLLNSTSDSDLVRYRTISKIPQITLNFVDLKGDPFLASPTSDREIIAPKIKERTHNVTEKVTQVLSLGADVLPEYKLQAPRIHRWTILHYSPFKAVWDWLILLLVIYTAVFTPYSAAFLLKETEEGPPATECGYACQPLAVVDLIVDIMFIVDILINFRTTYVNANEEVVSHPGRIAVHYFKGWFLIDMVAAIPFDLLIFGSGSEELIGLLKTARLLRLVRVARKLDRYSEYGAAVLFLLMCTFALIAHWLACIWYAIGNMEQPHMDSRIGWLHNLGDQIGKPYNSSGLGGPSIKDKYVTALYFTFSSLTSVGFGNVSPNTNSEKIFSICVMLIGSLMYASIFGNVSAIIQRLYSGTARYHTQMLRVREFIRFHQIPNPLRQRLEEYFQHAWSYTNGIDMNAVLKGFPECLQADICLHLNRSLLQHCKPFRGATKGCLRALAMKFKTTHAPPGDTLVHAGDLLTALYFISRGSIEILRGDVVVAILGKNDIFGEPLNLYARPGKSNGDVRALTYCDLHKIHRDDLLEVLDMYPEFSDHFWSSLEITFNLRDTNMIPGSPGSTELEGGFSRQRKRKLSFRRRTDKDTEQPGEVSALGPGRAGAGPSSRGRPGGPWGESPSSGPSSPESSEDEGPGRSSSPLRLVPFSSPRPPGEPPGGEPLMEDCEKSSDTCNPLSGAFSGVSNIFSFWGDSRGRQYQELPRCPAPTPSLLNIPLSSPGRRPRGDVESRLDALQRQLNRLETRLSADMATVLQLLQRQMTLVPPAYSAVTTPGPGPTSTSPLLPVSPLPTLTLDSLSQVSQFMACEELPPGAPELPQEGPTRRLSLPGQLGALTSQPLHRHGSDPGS", "experiment": "Inhibition of human ERG at 30 uM"}, "Kir2.1": {"biological_target": "T3, Kir2.1 (Homo sapiens, UniProt P63252)", "T3 sequence (P63252 whole entry)": "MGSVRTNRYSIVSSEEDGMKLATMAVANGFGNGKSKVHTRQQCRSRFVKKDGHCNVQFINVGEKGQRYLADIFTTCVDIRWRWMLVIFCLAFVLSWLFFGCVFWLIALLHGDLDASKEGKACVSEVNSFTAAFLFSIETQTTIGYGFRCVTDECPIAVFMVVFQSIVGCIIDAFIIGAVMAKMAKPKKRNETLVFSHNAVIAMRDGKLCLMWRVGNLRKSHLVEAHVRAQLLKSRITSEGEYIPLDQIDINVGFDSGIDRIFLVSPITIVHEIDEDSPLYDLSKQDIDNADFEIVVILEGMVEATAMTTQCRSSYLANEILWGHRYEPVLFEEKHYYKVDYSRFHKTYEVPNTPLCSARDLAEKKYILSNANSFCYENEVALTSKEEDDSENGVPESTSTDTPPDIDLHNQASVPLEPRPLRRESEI", "experiment": "Inhibition of Kir2.1 (unknown origin) at 30 uM"}},
  "data": [
    {"smiles": "COc1cc(C#N)ccc1S(=O)(=O)Nc1ccc2c(c1)cc(C)c(=O)n2C", "values": [
      {"measurement": "IC50", "setting": "[1]", "result": "> 33000", "unit": "nM"},
      {"measurement": "IC50", "setting": "[2]", "result": 619, "unit": "nM"},
      {"measurement": "IC50", "setting": "[3]", "result": 4400, "unit": "nM"},
      {"measurement": "Papp A→B at 2 h, 10 µM", "setting": "[4]", "result": 11, "unit": "×10⁻⁶ cm/s"},
      {"measurement": "Fa", "setting": "[5]", "result": 35, "unit": "%"},
      {"measurement": "inhibition (INH)", "setting": "[6]", "result": "Not Active"},
      {"measurement": "Kd", "setting": "[7]", "result": 1000, "unit": "nM"},
      {"measurement": "inhibition at 30 µM", "setting": "hERG", "result": "< 40", "unit": "%"},
      {"measurement": "inhibition at 30 µM", "setting": "Kir2.1", "result": "< 40", "unit": "%"}
    ]}
  ]
}
